Experiment [1] concerns the target T1, Glutathione S-transferase omega-1 (Homo sapiens, UniProt P78417).
T1 sequence (P78417 whole entry): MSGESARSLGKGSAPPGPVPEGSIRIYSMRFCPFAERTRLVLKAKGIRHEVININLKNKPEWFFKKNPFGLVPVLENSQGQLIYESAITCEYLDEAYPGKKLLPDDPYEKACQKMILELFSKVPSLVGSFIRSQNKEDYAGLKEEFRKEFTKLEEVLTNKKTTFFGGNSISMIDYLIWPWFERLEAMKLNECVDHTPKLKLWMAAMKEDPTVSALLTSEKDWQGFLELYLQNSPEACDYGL
Nature of the experiment: Inhibition of human GSTO1-1 by MMA (V) reductase assay.

The target of experiment [2] is Glutathione S-transferase P (Homo sapiens, UniProt P09211). Nature of the experiment: Inhibition of human GSTP1-1.
Chain of Glutathione S-transferase P (P09211 whole entry): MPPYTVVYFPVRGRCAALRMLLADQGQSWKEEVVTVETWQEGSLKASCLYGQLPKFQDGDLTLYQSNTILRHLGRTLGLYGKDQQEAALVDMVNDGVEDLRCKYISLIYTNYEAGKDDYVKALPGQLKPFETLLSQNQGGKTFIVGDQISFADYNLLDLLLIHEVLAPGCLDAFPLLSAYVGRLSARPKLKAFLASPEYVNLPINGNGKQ
For experiment [3], the target named is Glutathione S-transferase omega-1 (Homo sapiens) (UniProt P78417). The experiment can be described thus: Inhibition of human GSTO1-1 expressed in HEK293 cells by CDNB-GSH conjugation assay.
Experiment [4] addresses T1, Glutathione S-transferase omega-1. The experiment can be described thus: Inhibition of GSTO1-1 (unknown origin) by 4-NPG substrate based assay.
For experiment [5] the target is unchanged. The experiment can be described thus: Inhibition of GSTO1-1 (unknown origin) pre-incubated for 1 hr before GSH addition by CDNB-GSH conjugation assay.
Experiment [6] has the same target. The experiment can be described thus: Inhibition of GSTO1-1 (unknown origin) by enzymatic assay.

What is called IC50 is the concentration at which inhibition is half-maximal. A lower IC50 goes with higher potency.

In experiment [1], `C=C(CC)C(=O)c1ccc(OCC(=O)O)c(Cl)c1Cl` [ETHACRYNIC ACID] showed an IC50 of 25 µM.

As to `Cc1c(C)c2c(c(C)c1O)CC[C@@](C)(CCC[C@H](C)CCC[C@H](C)CCCC(C)C)O2` [ALPHA-TOCOPHEROL], the concentration for half-maximal inhibition (IC50) in experiment [2] came to 0.5 µM.

In turn, `CC(=O)Oc1ccc2c(c1)Oc1cc(OC(C)=O)ccc1C21OC(=O)c2cc(CCl)ccc21` came in with an IC50 in experiment [3] of 0.0512 µM.

Consider `CC(C)c1cc2c(c(O)c1O)[C@@]1(C(=O)O)CCCC(C)(C)[C@@H]1CC2` [CARNOSIC ACID], for which the 50% inhibitory concentration (IC50) in experiment [4] was determined as 62 µM. That is a double-digit micromolar value.

Molecule `CC(C)C[C@H](NC(=O)[C@H](CCc1ccccc1)NC(=O)CN1CCOCC1)C(=O)N[C@@H](Cc1ccccc1)C(=O)N[C@@H](CC(C)C)C(=O)[C@@]1(C)CO1` [CARFILZOMIB] showed an IC50 in experiment [5] of 0.15 µM.

As for `Cc1c(C)c2c(c(C)c1OC(=O)CCC(=O)O)CC[C@@](C)(CCC[C@H](C)CCC[C@H](C)CCCC(C)C)O2` [(+)-ALPHA-TOCOPHERYL SUCCINATE], in experiment [1], the IC50 was 4 µM.

Take `O=C1C=CC(O)(c2cc(=O)c3c(O)cc(O)cc3o2)C=C1` [PROTOAPIGENONE]: inhibition in experiment [4] was half-maximal at 1.6 µM (IC50).

Consider `C[C@H](CCC(=O)O)[C@H]1CC[C@H]2[C@@H]3CC[C@@H]4C[C@H](O)CC[C@]4(C)[C@H]3C[C@H](O)[C@]12C`, for which, in experiment [1], the IC50 came to 1020 µM.

In the case of `O=[N+]([O-])c1ccc(Cl)c([N+](=O)[O-])c1` [DINITROCHLOROBENZENE], the midpoint of inhibition in experiment [1], the IC50, lay at 900 µM.

`CCN(CC)C(=O)SSC(=O)N(CC)CC` registered an IC50 in experiment [6] of under 0.4 µM.

(Values after ChEMBL document CHEMBL4196096, “Reviewing Hit Discovery Literature for Difficult Targets: Glutathione Transferase Omega-1 as an Example” (J Med Chem, 2018).)
